Reference: US5717110A, “UCH15 compounds” (Kyowa Hakko Kogyo Co., Ltd., priority 1995, dated 1998)
Values after ≈ are worked out from the molar mass of the structure shown.

How the values were obtained:
[1] = test system: Hela S3 cells (ATCC HTB22); assay: Growth inhibition on Hela S3 cells; type: cell-based; conditions: Homo sapiens, 72 hours incubation, Giemsa staining, read-out: IC50 against the cell growth
Description: Into each well of a 96-well microtiter plate was pipetted 0.1 ml of a 3.0×10^4 cells/ml suspension of Hela S3 cells (ATCC HTB22) in DEM medium containing 10% of fetal calf serum (manufactured by Nissui, hereinafter referred to as "medium A"). This plate was incubated in a carbon dioxide gas incubator at 37° C. for 20 hours. Then, 0.1 ml of the test compound, which had been appropriately diluted with the medium A, was added to each well followed by incubation in the carbon dioxide gas incubator at 37° C. for additional 72 hours. After having removed the culture supernatant, the residue was washed with physiological saline once and treated with 0.1 ml of methanol for 10 minutes to thereby fix the cells. Next, the cells were stained with 0.1 ml of Giemsa's staining solution [stock solution for Giemsa's staining Merck Art 9204 (manufactured by Merck): physiological saline=1:10] for 5 minutes. After having removed the staining solution, the residue was washed with 0.2 ml of water once. Then, the pigment was extracted with 0.2 ml of 0.1N hydrochloric acid, and the absorbance was measured at 620 nm by the use of a microplate reader. From the result of the measurement, the increased amount of the grown cells was determined. […]

[2] = test system: Shigella sonnei ATCC 9290; assay: Antibacterial activity, agar dilution method (MIC); type: cell-based; conditions: ATCC9290, medium pH 7, read-out: Minimum Inhibitory Concentration
Description: (§1) These antibacterial activities were determined by the agar dilution method with the use of a medium (pH 7) comprising 3 g/liter of bactotryptone (manufactured by Difco), 3 g/liter of meat extract, 1 g/liter of yeast extract, 1 g/liter of glucose and 16 g/liter of agar.

[3] = test system: Staphylococcus aureus ATCC 6538P; assay: Antibacterial activity, agar dilution method (MIC); type: cell-based; conditions: ATCC6538P, medium pH 7, read-out: Minimum Inhibitory Concentration
Description: as §1

[4] = test system: Pseudomonas aeruginosa Bin H No. 1; assay: Antibacterial activity, agar dilution method (MIC); type: cell-based; conditions: medium pH 7, read-out: Minimum Inhibitory Concentration
Description: as §1

[5] = test system: Klebsiella pneumoniae ATCC 10031; assay: Antibacterial activity, agar dilution method (MIC); type: cell-based; conditions: ATCC10031, medium pH 7, read-out: Minimum Inhibitory Concentration
Description: as §1

[6] = test system: Salmonella choleraesuis ATCC 9992; assay: Antibacterial activity, agar dilution method (MIC); type: cell-based; conditions: Salmonella enterica, pH 7, read-out: Minimum Inhibitory Concentration
Description: as §1

[7] = test system: Proteus vulgaris ATCC 6897; assay: Antibacterial activity, agar dilution method (MIC); type: cell-based; conditions: ATCC6897, medium pH 7, read-out: Minimum Inhibitory Concentration
Description: as §1

[8] = test system: Bacillus subtilis No. 10707; assay: Antibacterial activity, agar dilution method (MIC); type: cell-based; conditions: medium pH 7, read-out: Minimum Inhibitory Concentration
Description: as §1

[9] = test system: Enterococcus hirae ATCC 10541; assay: Antibacterial activity, agar dilution method (MIC); type: cell-based; conditions: ATCC10541, medium pH 7, read-out: Minimum Inhibitory Concentration
Description: as §1

[10] = test system: Candida albicans ATCC 10231; assay: Antibacterial activity, agar dilution method (MIC); type: cell-based; conditions: ATCC10231, medium pH 7, read-out: Minimum Inhibitory Concentration
Description: as §1

[11] = test system: Escherichia coli ATCC 26; assay: Antibacterial activity, agar dilution method (MIC); type: cell-based; conditions: ATCC26, medium pH 7, read-out: Minimum Inhibitory Concentration
Description: as §1

[12] = test system: human ovarian cancer strain A2780 tumor; assay: Antitumor activity on human ovarian cancer strain A2780; type: in vivo; conditions: 0.38 mg/kg, once into tail vein; nude mice (BALB/C-nu/nu); 14 days after injection; [V/V0]/[C/C0]
Description: Nude mice (BALB/C-nu/nu) were used herein, which were grouped into plural groups, each group being comprised of 5 mice. A human ovarian cancer strain A2780 tumor (a piece of 8mm^3) was implanted into the subcutaneous tissue in the abdominal region of each mouse. After the implantation, when the tumor volume in each tumor-carrying mouse reached between 50 and 300 mm^3, a solution of UCH15B in physiological saline was injected once into the tail vein of each mouse (in the test group). Just before the injection of said UCH15B solution, the volume of the tumor (V0) in each mouse was measured. 14 days after the injection thereof, the volume of the tumor (V) therein was measured. Into each mouse in the control group, only physiological saline was injected. Just before the injection of physiological saline, the volume of the tumor (C0) in each mouse was measured. 14 days after the injection thereof, the volume of the tumor (C) therein was measured. The antitumor activity of the test compound, UCH15B was obtained according to the following equation.
Antitumor Activity=[V/V0]/[C/C0 ]
V: tumor volume (mm^3) in test group after the test
V0 : tumor volume (mm^3) in test group before the test
C: tumor volume (mm^3) in control group after the test
C0 : tumor volume (mm^3) in control group before the test

[13] = test system: sarcoma 180 tumor; assay: Antitumor activity on sarcoma 180 tumor; type: in vivo, male ddY mice; conditions: for Mean Tumor Volume: once into tail vein on day 1, measured on 7th day after implantation, ddY mice; for Antitumor Activity (T/C): once into tail vein, day 7, mean tumor volume test/control
Description: Male ddY mice were used herein, which were grouped into plural groups, each group being comprised of 5 mice. 5×10^6 sarcoma 180 tumor cells were implanted into the subcutaneous tissue in the axillary region of each mouse. On the 1st day after the implantation, a solution of UCH15B dissolved in physiological saline was injected once into the tail vein of each mouse. On the 7th day after the implantation, the mean tumor volume (mm^3) in each mouse was measured. […] Said antitumor activity was calculated according to the following equation.
=[mean tumor volume (mm^3) in mice in test group]/[mean tumor volume (mm^3) in mice in control group (to which was administered physiological saline only)]

Question: Which results are given for `N#CC(CC(=O)NC(C=O)C/C=C/CN)NC(=O)c1cc(NC(=O)c2cc(NC(=O)CNC(=N)N)c[nH]2)c[nH]1` (stereo not shown) [UCH15A]?
Answer: IC50 [1]: 1200 nM; MIC [2]: 0.16 µg/mL (≈ 0.297 µM); MIC [3]: 2.6 µg/mL (≈ 4.82 µM); MIC [4]: > 50 µg/mL; MIC [5]: 0.02 µg/mL (≈ 0.0371 µM); MIC [6]: 0.16 µg/mL (≈ 0.297 µM); MIC [7]: 0.16 µg/mL (≈ 0.297 µM); MIC [8]: 0.08 µg/mL (≈ 0.148 µM); MIC [9]: 2.6 µg/mL (≈ 4.82 µM); MIC [10]: 10.4 µg/mL (≈ 19.3 µM); MIC [11]: 0.16 µg/mL (≈ 0.297 µM)

Question: For `N#CC(CC(=O)NC(C=O)C/C=C/CN)NC(=O)c1cc(NC(=O)c2cc(NC(=O)CNC(N)=NO)c[nH]2)c[nH]1` (stereo not shown) [UCH15B], which IC50 [1] is on record?
Answer: 1000 nM

Question: And the MIC [2]?
Answer: 0.33 µg/mL (≈ 0.594 µM)

Question: What about the MIC [3] of the same compound?
Answer: 5.2 µg/mL (≈ 9.36 µM)

Question: And the MIC [4]?
Answer: > 50 µg/mL

Question: What about the MIC [5] of the same compound?
Answer: 0.04 µg/mL (≈ 0.072 µM)

Question: What about the MIC [6] of the same compound?
Answer: 0.33 µg/mL (≈ 0.594 µM)

Question: And the MIC [7]?
Answer: 0.33 µg/mL (≈ 0.594 µM)

Question: And the MIC [8]?
Answer: 0.33 µg/mL (≈ 0.594 µM)

Question: And the MIC [9]?
Answer: 10.4 µg/mL (≈ 18.7 µM)

Question: And the MIC [10]?
Answer: > 41.7 µg/mL

Question: What about the MIC [11] of the same compound?
Answer: 0.08 µg/mL (≈ 0.144 µM)

Question: And the “Antitumor Activity (T/C)” value [12]?
Answer: 0.27

Question: What about the “Mean Tumor Volume” value ([13]; 0.094 mg/kg) of the same compound?
Answer: 1528 mm^3

Question: What about the “Antitumor Activity (T/C)” value ([13]; 0.094 mg/kg) of the same compound?
Answer: 0.65

Question: What about the “Mean Tumor Volume” value ([13]; 0.19 mg/kg) of the same compound?
Answer: 1405 mm^3

Question: And the “Antitumor Activity (T/C)” value ([13]; 0.19 mg/kg)?
Answer: 0.60

Question: What about the “Mean Tumor Volume” value ([13]; 0.38 mg/kg) of the same compound?
Answer: 1035 mm^3

Question: And the “Antitumor Activity (T/C)” value ([13]; 0.38 mg/kg)?
Answer: 0.44

Question: And the “Mean Tumor Volume” value ([13]; 0.75 mg/kg)?
Answer: 522 mm^3

Question: What about the “Antitumor Activity (T/C)” value ([13]; 0.75 mg/kg) of the same compound?
Answer: 0.22
